Laboratory results as given in patent US6352958B1, “Cycloimido-substituted benzofused heterocyclic herbicides” (FMC Corporation, priority 1997, dated 2002).

Legend:
Format in all cases: in vivo
[1] = system: blackgrass (Aloepecurus myosuroides); test: Preemergence herbicidal activity, blackgrass; conditions: Rate of Application 0.3 Kg/Ha, examined after 12-17 days
[2] = system: blackgrass (Aloepecurus myosuroides); test: Postemergence herbicidal activity, blackgrass; conditions: rate of application 0.3 Kg/Ha, rated after 12-17 days
Description: The benzofused heterocyclic compounds of this invention were tested for pre- and postemergence herbicidal activity using a variety of crops and weeds. The test plants included soybean (Glycine max var. Winchester), field corn (Zea mays var. Pioneer 3732), wheat (Triticum aestivum var. Lew), morningglory (Ipomea lacunosa or Ipomea hederacea), velvetleaf (Abutilon theophrasti), green foxtail (Setaria viridis), Johnsongrass (Sorghum halepense), blackgrass (Aloepecurus myosuroides), common chickweed (Stellaria media), and common cocklebur (Xanthium strumarium L.).
For preemergence testing, two disposable fiber flats (8 cm×15 cm×25 cm) for each rate of application of each candidate herbicide were filled to an approximate depth of 6.5 cm with steam-sterilized sandy loam soil. The soil was leveled and impressed with a template to provide five evenly spaced furrows 13 cm long and 0.5 cm deep in each flat. Seeds of soybean, wheat, corn, green foxtail, and johnsongrass were planted in the furrows of the first flat, and seeds of velvetleaf, morningglory, common chickweed, cocklebur, and blackgrass were planted in the furrows of the second flat. The five-row template was employed to firmly press the seeds into place. A topping soil of equal portions of sand and sandy loam soil was placed uniformly on top of each flat to a depth of approximately 0.5 cm. Flats for postemergence testing were prepared in the same manner except that they were planted 9-14 days prior to the preemergence flats and were placed in a greenhouse and watered, thus allowing the seeds to germinate and the foliage to develop.
In both pre- and postemergence tests, a stock solution of the candidate herbicide was prepared by dissolving 0.27 g of the compound in 20 mL of water/acetone (50/50) containing 0.5% v/v sorbitan monolaurate. For an application rate of 3000 g/ha of herbicide a 10 mL portion of the stock solution was diluted with water/acetone (50/50) to 45 mL.
The preemergence flats were initially subjected to a light water spray. The four flats were placed two by two along a conveyor belt (i.e., the two preemergence followed by the two postemergence flats). The conveyor belt fed under a spray nozzle mounted about ten inches above the post-emergent foliage. The preemergent flats were elevated on the belt so that the soil surface was at the same level below the spray nozzle as the foliage canopy of the postemergent plants. The spray of herbicidal solution was commenced and once stabilized, the flats were passed under the spray at a speed to receive a coverage equivalent of 100 L/ha. At this coverage the application rates are those shown in the above table for the individual herbicidal solutions. The preemergence flats were watered immediately thereafter, placed in the greenhouse and watered regularly at the soil surface. The postemergence flats were immediately placed in the green-house and not watered until 24 hours after treatment with the test solution. Thereafter they were regularly watered at ground level. After 12-17 days the plants were examined and the phytotoxicity data were recorded.
Phytotoxicity data were taken as percent control. Percent control was determined by a method similar to the 0 to 100 rating system disclosed in “Research Methods in Weed Science,” 2nd ed., B. Truelove, Ed.; Southern Weed Science Society; Auburn University, Auburn, Ala., 1977.

[3] = system: soybean (Glycine max var. Winchester); test: Postemergence herbicidal activity, soybean; conditions: rate of application 0.3 Kg/Ha, rated after 12-17 days
[4] = system: morningglory (Ipomea lacunosa or Ipomea hederacea); test: Postemergence herbicidal activity, morningglory; conditions: rate of application 0.3 Kg/Ha, rated after 12-17 days
[5] = system: morningglory (Ipomea lacunosa or Ipomea hederacea); test: Preemergence herbicidal activity, morningglory; conditions: Rate of Application 0.3 Kg/Ha, examined after 12-17 days
[6] = system: Johnsongrass (Sorghum halepense); test: Postemergence herbicidal activity, johnsongrass; conditions: rate of application 0.3 Kg/Ha, rated after 12-17 days
[7] = system: soybean (Glycine max var. Winchester); test: Preemergence herbicidal activity, soybean; conditions: Rate of Application 0.3 Kg/Ha, examined after 12-17 days
[8] = system: velvetleaf (Abutilon theophrasti); test: Postemergence herbicidal activity, velvetleaf; conditions: rate of application 0.3 Kg/Ha, rated after 12-17 days
[9] = system: green foxtail (Setaria viridis); test: Preemergence herbicidal activity, green foxtail; conditions: Rate of Application 0.3 Kg/Ha, examined after 12-17 days
[10] = system: field corn (Zea mays var. Pioneer 3732); test: Preemergence herbicidal activity, corn; conditions: Rate of Application 0.3 Kg/Ha, examined after 12-17 days
[11] = system: wheat (Triticum aestivum var. Lew); test: Preemergence herbicidal activity, wheat; conditions: Rate of Application 0.3 Kg/Ha, examined after 12-17 days
[12] = system: wheat (Triticum aestivum var. Lew); test: Postemergence herbicidal activity, wheat; conditions: rate of application 0.3 Kg/Ha, rated after 12-17 days
[13] = system: common cocklebur (Xanthium strumarium L.); test: Preemergence herbicidal activity, cocklebur; conditions: Rate of Application 0.3 Kg/Ha, examined after 12-17 days
[14] = system: Johnsongrass (Sorghum halepense); test: Preemergence herbicidal activity, johnsongrass; conditions: Rate of Application 0.3 Kg/Ha, examined after 12-17 days
[15] = system: velvetleaf (Abutilon theophrasti); test: Preemergence herbicidal activity, velvetleaf; conditions: Rate of Application 0.3 Kg/Ha, examined after 12-17 days
[16] = system: green foxtail (Setaria viridis); test: Postemergence herbicidal activity, green foxtail; conditions: rate of application 0.3 Kg/Ha, rated after 12-17 days
[17] = system: field corn (Zea mays var. Pioneer 3732); test: Postemergence herbicidal activity, corn; conditions: rate of application 0.3 Kg/Ha, rated after 12-17 days
[18] = system: common chickweed (Stellaria media); test: Preemergence herbicidal activity, chickweed; conditions: Rate of Application 0.3 Kg/Ha, examined after 12-17 days
[19] = system: common chickweed (Stellaria media); test: Postemergence herbicidal activity, chickweed; conditions: rate of application 0.3 Kg/Ha, rated after 12-17 days
[20] = system: common cocklebur (Xanthium strumarium L.); test: Postemergence herbicidal activity, cocklebur; conditions: rate of application 0.3 Kg/Ha, rated after 12-17 days

| Compound | PREEMERGENCE HERBICIDAL ACTIVITY (% CONTROL) ALOMY [1] | Postemergence herbicidal activity (% control) ALOMY [2] | Postemergence herbicidal activity (% control) SOY [3] | Postemergence herbicidal activity (% control) IPOSS [4] | PREEMERGENCE HERBICIDAL ACTIVITY (% CONTROL) IPOSS [5] | Postemergence herbicidal activity (% control) SORHA [6] | PREEMERGENCE HERBICIDAL ACTIVITY (% CONTROL) SOY [7] | Postemergence herbicidal activity (% control) ABUTH [8] | PREEMERGENCE HERBICIDAL ACTIVITY (% CONTROL) SETVI [9] | PREEMERGENCE HERBICIDAL ACTIVITY (% CONTROL) CRN [10] | PREEMERGENCE HERBICIDAL ACTIVITY (% CONTROL) WHT [11] | Postemergence herbicidal activity (% control) WHT [12] | PREEMERGENCE HERBICIDAL ACTIVITY (% CONTROL) XANPE [13] | PREEMERGENCE HERBICIDAL ACTIVITY (% CONTROL) SORHA [14] | PREEMERGENCE HERBICIDAL ACTIVITY (% CONTROL) ABUTH [15] | Postemergence herbicidal activity (% control) SETVI [16] | Postemergence herbicidal activity (% control) CRN [17] | PREEMERGENCE HERBICIDAL ACTIVITY (% CONTROL) STEME [18] | Postemergence herbicidal activity (% control) STEME [19] | Postemergence herbicidal activity (% control) XANPE [20] |
| --- | --- | --- | --- | --- | --- | --- | --- | --- | --- | --- | --- | --- | --- | --- | --- | --- | --- | --- | --- | --- |
| CC(=O)OCc1nc2c(-n3c(=O)cc(C(F)(F)F)n(C)c3=O)c(F)cc(Br)c2o1 [Compound 101] | 80% | 60% | 95% | 100% | 100% | 65% | 80% | 100% | 100% | 100% | 70% | 50% | 80% | 100% | 100% | 65% | 80% | – | – | – |
| CC(=O)OC(C)(C)c1nc2c(-n3c(=O)cc(C(F)(F)F)n(C)c3=O)c(F)cc(Cl)c2[nH]1 [Compound 371] | 100% | – | 95% | 100% | 100% | 100% | 100% | 100% | 100% | 100% | 95% | 100% | 100% | 100% | 100% | 100% | 100% | 100% | 100% | 100% |
| Cn1c(C(F)(F)F)cc(=O)n(-c2c(F)cc(Br)c3oc(COc4ccc(Cl)cc4)nc23)c1=O [Compound 102] | 90% | 60% | 80% | 100% | 70% | 60% | 20% | 100% | 100% | 10% | 30% | 30% | 50% | 60% | 100% | 90% | 75% | – | – | – |
| CC(OC(=O)c1ccccc1)c1cc2c(Cl)cc(F)c(-n3c(=O)cc(C(F)(F)F)n(C)c3=O)c2o1 (stereo not shown) [Compound 248] | 95% | – | 80% | 100% | 100% | 100% | 100% | 100% | 100% | 95% | 90% | 50% | 100% | 100% | 100% | 100% | 95% | 100% | 100% | 100% |
| Cn1c(C(F)(F)F)cc(=O)n(-c2c(F)cc(Cl)c3[nH]c(C(F)F)nc23)c1=O [Compound 364] | 80% | – | 95% | 100% | 100% | 100% | 100% | 100% | 100% | 80% | 60% | 40% | 100% | 80% | 100% | 100% | 80% | 100% | 100% | 100% |
